Measured values from patent US20250353864A1, “INDAZOLE CONTAINING MACROCYCLES AND THEIR USE” (BLOSSOMHILL THERAPEUTICS, INC., priority 2022, published 2025).

Columns and labels:
Type in all cases: biochemical
[1] = molecular target: EGFR (D770_N771insNPG) (Homo sapiens (Human), UniProt P00533, INS770NPG); experiment: HotSpot radiometric kinase assay, EGFR (D770_N771insNPG); details: 10 μM ATP, read-out: EGFR (Δ770_N771insNPG) IC50
How it was run: (§1)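 IC50 values come from curve fits of ^33P incorporation captured on P81 filters after acid washing. Kinase reactions ran 120 min at room temperature with 10 μM ATP, added about 20 min after compound. Buffer was Hepes pH 7.5 containing Mg, DTT and 1% DMSO.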

[2] = molecular target: EGFR L858R/T790M mutant (Homo sapiens (Human), UniProt P00533, L858R/T790M); experiment: HotSpot radiometric kinase assay, EGFR L858R/T790M mutant; details: 10 μM ATP
How it was run: as §1

[3] = molecular target: EGFR WT (Homo sapiens (Human), UniProt P00533); experiment: HotSpot radiometric kinase assay (Reaction Biology), EGFR WT; details: 10 μM ATP
How it was run: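 Compounds were preincubated ~20 min with kinase/substrate in pH 7.5 Hepes buffer (MgCl2, EGTA, Brij35, BSA, Na3VO4, DTT, 1% DMSO), then ATP plus 33P-ATP was added to 10 μM final. After 120 min at room temperature, reactions were spotted on P81 filters and washed; IC50 values came from curve fits.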

[4] = molecular target: CLK4 (Homo sapiens (Human), UniProt Q9HAZ1); experiment: Inhibition of CLK4 kinase activity evaluated at Nanosyn (ADP-Glo); details: ADP-Glo luminescence
CLK4, sequence (Q9HAZ1 whole entry): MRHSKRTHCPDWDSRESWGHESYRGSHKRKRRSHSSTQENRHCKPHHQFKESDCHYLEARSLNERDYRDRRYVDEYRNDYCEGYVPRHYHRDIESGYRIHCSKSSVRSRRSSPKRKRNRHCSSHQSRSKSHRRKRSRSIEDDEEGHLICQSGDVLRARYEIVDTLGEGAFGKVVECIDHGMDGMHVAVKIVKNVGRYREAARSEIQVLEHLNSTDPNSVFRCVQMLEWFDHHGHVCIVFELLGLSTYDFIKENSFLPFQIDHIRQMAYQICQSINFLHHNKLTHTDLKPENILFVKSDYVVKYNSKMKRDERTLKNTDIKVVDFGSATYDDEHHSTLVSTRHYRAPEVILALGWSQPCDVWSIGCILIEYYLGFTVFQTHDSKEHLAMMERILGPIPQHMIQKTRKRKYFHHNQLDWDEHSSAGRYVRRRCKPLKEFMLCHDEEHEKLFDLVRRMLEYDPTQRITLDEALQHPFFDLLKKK
Experimental: (§2) Inhibition of CLK, CLK2, CLK3 and CLK4 Kinase Activity Evaluated at Nanosyn
(§3) Kinase protein and substrate were pre-diluted in the HEPES assay buffer (100 mM HEPES, pH 7.5, 0.01% Triton X-100, 0.1% BSA, 5 mM MgCl2, […] DTT, 10 Sodium Orthovanadate, […] Beta-Glycerophosphate) dispensed into 384 well plate (5 μL per well). Control samples (0%-inhibition in the absence of inhibitor, DMSO only) and 100%-inhibition (in the absence of enzyme) were assembled in replicates of six and were used to calculate %-inhibition in the presence of compounds. Test compounds were added to the protein samples by acoustic dispensing (Labcyte Echo550). Concentration of DMSO was equalized to 1% in all samples. Reactions were initiated by addition of ATP by acoustic dispensing (Labcyte Echo550) and incubated according to assay specific incubation time. After incubation. 5 μL of Promega ADP-Glo reagent was added and incubated for 40 minutes. After 40 minutes, 10 uL of Promega kinase detection reagent was added. After 10 min of incubation with Kinase detection reagent, the luminescence was read on microplate reader (Biotek Synergy).

[5] = molecular target: EGFR Δ746-750/C797S mutant (Homo sapiens (Human), UniProt P00533, C797S/DEL746-750); experiment: HotSpot radiometric kinase assay, EGFR Δ746-750/C797S mutant; details: 10 μM ATP
How it was run: as §1

[6] = molecular target: EGFR L858R/T790M/C797S mutant (Homo sapiens (Human), UniProt P00533, C797S/L858R/T790M); experiment: HotSpot radiometric kinase assay, EGFR L858R/T790M/C797S mutant; details: 10 μM ATP
EGFR L858R/T790M/C797S mutant, sequence (P00533 25-1210 T790M/C797S/L858R): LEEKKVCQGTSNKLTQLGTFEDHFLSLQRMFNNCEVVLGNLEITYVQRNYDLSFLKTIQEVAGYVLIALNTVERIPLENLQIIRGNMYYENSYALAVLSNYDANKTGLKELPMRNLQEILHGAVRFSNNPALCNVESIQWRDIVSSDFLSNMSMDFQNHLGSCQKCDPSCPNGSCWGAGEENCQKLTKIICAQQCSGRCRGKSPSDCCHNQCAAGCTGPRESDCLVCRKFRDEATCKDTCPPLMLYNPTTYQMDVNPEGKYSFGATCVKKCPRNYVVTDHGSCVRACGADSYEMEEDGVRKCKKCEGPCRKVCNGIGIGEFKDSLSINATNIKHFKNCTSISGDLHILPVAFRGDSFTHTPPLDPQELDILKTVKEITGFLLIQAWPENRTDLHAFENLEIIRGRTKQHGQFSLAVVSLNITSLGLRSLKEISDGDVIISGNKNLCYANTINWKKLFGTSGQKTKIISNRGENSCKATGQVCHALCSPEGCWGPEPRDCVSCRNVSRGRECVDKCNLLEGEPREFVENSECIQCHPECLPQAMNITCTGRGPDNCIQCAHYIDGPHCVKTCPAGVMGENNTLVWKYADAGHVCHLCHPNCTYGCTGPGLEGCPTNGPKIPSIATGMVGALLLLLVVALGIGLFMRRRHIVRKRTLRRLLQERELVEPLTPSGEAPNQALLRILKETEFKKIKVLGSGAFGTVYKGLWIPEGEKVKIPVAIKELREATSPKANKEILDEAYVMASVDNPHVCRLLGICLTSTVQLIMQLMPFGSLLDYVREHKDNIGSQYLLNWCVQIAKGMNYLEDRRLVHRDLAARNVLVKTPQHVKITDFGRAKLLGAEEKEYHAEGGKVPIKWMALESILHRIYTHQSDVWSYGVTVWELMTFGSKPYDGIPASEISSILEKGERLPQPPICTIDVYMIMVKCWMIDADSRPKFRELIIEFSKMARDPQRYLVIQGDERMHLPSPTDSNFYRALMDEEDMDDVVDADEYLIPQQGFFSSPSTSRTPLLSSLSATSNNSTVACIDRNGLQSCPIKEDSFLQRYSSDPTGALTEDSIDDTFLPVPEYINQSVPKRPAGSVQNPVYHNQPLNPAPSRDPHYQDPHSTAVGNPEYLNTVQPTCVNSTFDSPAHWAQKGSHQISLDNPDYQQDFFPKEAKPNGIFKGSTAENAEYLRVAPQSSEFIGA
How it was run: as §1

[7] = molecular target: EGFR L858R mutant (Homo sapiens (Human), UniProt P00533, L858R); experiment: HotSpot radiometric kinase assay, EGFR L858R mutant; details: 10 μM ATP
EGFR L858R mutant, sequence (P00533 25-1210 L858R): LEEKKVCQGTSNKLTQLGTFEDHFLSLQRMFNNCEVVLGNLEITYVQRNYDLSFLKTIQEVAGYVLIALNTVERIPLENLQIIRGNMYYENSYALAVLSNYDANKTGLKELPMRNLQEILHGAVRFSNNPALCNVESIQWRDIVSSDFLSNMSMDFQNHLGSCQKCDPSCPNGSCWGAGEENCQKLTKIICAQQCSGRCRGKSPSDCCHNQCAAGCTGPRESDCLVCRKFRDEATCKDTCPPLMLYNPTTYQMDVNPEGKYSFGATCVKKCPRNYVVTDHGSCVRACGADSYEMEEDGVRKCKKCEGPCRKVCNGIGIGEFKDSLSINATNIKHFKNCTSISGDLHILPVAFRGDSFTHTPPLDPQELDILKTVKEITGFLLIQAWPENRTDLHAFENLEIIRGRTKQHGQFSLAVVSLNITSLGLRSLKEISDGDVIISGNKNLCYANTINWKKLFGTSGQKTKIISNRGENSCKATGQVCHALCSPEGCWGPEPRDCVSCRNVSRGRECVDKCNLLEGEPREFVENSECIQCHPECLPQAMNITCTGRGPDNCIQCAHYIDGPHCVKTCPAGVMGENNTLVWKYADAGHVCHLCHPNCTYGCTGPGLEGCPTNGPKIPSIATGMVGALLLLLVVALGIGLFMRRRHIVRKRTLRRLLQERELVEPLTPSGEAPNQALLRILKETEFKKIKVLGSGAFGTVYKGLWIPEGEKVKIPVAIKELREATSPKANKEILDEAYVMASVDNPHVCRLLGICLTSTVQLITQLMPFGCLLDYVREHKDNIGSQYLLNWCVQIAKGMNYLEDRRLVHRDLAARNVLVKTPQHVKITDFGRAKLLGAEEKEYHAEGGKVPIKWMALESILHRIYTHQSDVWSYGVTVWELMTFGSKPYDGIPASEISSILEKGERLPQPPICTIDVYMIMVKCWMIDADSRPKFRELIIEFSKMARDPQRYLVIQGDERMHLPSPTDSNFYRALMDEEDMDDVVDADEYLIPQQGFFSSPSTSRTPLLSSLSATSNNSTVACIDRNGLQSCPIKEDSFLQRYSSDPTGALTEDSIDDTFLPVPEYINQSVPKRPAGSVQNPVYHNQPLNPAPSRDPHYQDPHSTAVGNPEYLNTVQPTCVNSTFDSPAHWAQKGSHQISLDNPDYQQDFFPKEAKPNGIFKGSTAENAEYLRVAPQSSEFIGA
How it was run: as §1

[8] = molecular target: CLK3 (Homo sapiens (Human), UniProt P49761); experiment: Inhibition of CLK3 kinase activity evaluated at Nanosyn (ADP-Glo); details: ADP-Glo luminescence
CLK3, sequence (P49761 whole entry): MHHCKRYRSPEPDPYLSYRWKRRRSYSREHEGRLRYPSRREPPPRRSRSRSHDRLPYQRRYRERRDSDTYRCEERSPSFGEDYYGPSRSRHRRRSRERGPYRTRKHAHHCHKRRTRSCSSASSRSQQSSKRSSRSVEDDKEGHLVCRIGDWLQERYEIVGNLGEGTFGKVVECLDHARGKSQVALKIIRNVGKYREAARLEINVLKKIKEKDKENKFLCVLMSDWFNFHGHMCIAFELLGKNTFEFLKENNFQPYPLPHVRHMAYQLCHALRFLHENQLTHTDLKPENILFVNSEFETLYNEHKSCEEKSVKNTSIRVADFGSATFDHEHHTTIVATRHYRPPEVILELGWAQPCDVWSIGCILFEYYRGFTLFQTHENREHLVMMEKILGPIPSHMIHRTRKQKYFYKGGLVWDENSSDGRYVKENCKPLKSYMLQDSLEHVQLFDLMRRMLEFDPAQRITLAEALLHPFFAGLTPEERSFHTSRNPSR
Experimental: as §2, §3

[9] = molecular target: EGFR Δ746-750 mutant (Homo sapiens (Human), UniProt P00533, DEL746-750); experiment: HotSpot radiometric kinase assay, EGFR Δ746-750 mutant; details: 10 μM ATP
EGFR Δ746-750 mutant, sequence (P00533 other isoform, or with tags, fused parts or gaps del 1-668/del 746-750 limits assumed): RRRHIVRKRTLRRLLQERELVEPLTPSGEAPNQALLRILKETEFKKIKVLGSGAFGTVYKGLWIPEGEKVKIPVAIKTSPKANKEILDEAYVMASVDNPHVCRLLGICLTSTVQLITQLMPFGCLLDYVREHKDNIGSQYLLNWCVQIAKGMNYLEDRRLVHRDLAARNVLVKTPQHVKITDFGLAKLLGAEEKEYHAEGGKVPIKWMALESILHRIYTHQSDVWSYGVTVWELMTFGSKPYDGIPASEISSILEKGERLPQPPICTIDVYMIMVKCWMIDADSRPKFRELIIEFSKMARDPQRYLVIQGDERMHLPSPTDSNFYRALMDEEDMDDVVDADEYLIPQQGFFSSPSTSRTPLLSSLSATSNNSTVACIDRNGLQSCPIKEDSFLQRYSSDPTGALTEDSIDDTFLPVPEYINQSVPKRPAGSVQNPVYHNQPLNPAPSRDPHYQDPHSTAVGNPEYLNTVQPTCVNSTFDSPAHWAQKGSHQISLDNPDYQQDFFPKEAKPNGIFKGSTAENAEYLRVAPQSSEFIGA
How it was run: as §1

[10] = molecular target: CLK1 (Homo sapiens (Human), UniProt P49759); experiment: Inhibition of CLK1 kinase activity evaluated at Nanosyn (ADP-Glo); details: ADP-Glo luminescence
CLK1, sequence (P49759 whole entry): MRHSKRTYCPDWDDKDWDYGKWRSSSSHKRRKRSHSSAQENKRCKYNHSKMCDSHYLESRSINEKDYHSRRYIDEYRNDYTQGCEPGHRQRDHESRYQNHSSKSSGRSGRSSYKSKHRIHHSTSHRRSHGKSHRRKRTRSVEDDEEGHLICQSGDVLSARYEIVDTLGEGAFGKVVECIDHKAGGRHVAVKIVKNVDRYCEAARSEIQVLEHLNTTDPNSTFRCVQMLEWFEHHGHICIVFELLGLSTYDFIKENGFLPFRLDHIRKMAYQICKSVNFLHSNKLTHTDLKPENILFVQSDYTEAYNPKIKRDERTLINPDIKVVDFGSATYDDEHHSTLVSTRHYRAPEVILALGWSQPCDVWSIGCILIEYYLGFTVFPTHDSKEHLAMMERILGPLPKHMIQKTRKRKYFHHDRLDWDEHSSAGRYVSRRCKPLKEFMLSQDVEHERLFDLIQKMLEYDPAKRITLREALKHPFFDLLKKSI
Experimental: as §2, §3

[11] = molecular target: CLK2 (Homo sapiens (Human), UniProt P49760); experiment: Inhibition of CLK2 kinase activity evaluated at Nanosyn (ADP-Glo); details: ADP-Glo luminescence
CLK2, sequence (P49760 whole entry): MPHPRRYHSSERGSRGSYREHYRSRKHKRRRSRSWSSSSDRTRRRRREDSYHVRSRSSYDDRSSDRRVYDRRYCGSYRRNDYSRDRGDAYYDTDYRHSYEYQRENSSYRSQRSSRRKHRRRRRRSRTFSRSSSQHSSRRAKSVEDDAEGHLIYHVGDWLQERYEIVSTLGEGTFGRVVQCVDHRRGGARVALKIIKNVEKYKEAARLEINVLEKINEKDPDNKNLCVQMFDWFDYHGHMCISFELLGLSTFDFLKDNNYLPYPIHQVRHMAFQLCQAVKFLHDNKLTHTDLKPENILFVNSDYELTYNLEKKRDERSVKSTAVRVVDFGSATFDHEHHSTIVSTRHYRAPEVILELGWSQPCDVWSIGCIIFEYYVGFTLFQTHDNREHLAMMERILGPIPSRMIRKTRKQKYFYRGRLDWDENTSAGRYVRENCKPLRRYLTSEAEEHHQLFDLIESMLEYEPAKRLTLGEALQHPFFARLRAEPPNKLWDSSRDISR
Experimental: as §2, §3

Row | SMILES | IC50 [1] [nM] | IC50 [2] [nM] | IC50 [3] [nM] | IC50 [4] [nM] | IC50 [5] [nM] | IC50 [6] [nM] | IC50 [7] [nM] | IC50 [8] [nM] | IC50 [9] [nM] | IC50 [10] [nM] | IC50 [11] [nM]
1 | CC(C)Oc1nn(CCO)c2c1/C=C/c1n[nH]c3ccc(cc13)-c1cnn(C)c1OC(CF)CN(C)C2 (stereo not shown) [Example 225, 2-{(17E)-10-(fluoromethyl)-8,12-dimethyl-16-[(propan-2-yl)oxy]-2,8,10,11,12,13-hexahydro-14H-3,5-ethenotripyrazolo[3,4-f:3′,4′-j:4″,3″-n][1,4]oxazacyclopentadecin-14-yl}ethan-1-ol] | 65.4 | 0.57 | 51.8 | 1.92 | 1.44 | 0.21 | 12.2 | 77.7 | 5.39 | 1.11 | 0.49
2 | CC(C)Oc1nn(CCO)c2c1/C=C/c1n[nH]c3ccc(cc13)-c1cnn(C)c1O[C@@H](C)CN(C)[C@@H]2C [Example 223] | 102 | 0.61 | 42.6 | 2.11 | 3.12 | 0.34 | 7.07 | 30 | 4.07 | 0.85 | 0.28
3 | CCOc1nn(CCO)c2c1/C=C/c1n[nH]c3ccc(cc13)-c1cnn(C)c1O[C@@H](C)CN(CC)C2 [Example 177, 2-[(10S,17E)-16-ethoxy-12-ethyl-8,10-dimethyl-2,8,10,11,12,13-hexahydro-14H-3,5-ethenotripyrazolo[3,4-f:3′,4′-j:4″,3″-n][1,4]oxazacyclopentadecin-14-yl]ethan-1-ol] | 1.56 | 0.6 | 0.67 | 1.08 | 0.75 | 1.78 | 0.38 | 59.1 | 0.56 | 0.47 | 0.23
4 | C[C@H]1CN(C)Cc2c(c(OCC#N)nn2CCO)/C=C/c2n[nH]c3ccc(cc23)-c2cnn(C)c2O1 [Example 203, {[(10S,17E)-14-(2-hydroxyethyl)-8,10,12-trimethyl-2,10,11,12,13,14-hexahydro-8H-3,5-ethenotripyrazolo[3,4-f:3′,4′-j:4″,3″- n][1,4]oxazacyclopentadecin-16-yl]oxy}acetonitrile] | 0.65 | 0.17 | 0.23 | 1.59 | 0.23 | 0.78 | 0.12 | 151 | 0.11 | 0.72 | 0.14
5 | CC(C)Oc1nn(CCO)c2c1/C=C/c1n[nH]c3ccc(cc13)-c1cnn(C)c1O[C@@H](C)CN(C)[C@H]2C [Example 224, 2-{(10S,13S,17E)-8,10,12,13-tetramethyl-16-[(propan-2-yl)oxy]-2,8,10,11,12,13-hexahydro-14H-3,5-ethenotripyrazolo[3,4-f:3′,4′-j:4″,3″-n][1,4]oxazacyclopentadecin-14-yl}ethan-1-ol] |  |  |  | 1.46 |  |  |  | 253 |  | 0.69 | 1.16
6 | CC(=O)N1CCOc2c(cnn2C)-c2ccc3[nH]nc(c3c2)/C=C/c2c(nn(C)c2C)C1 [Example 52, 1-[(17E)-8,15,16-trimethyl-2,8,10,11,13,15-hexahydro-12H-3,5-ethenotripyrazolo[3,4-f:3′,4′-j:4″,3″- n][1,4]oxazacyclopentadecin-12-yl]ethan-1-one] |  |  |  | 0.56 |  |  |  | 148 |  | 0.24 | 0.19
7 | Cc1nn(C)c2c1/C=C/c1n[nH]c3ccc(cc13)-c1cnn(C)c1CN(C)CCO2 [Example 55, (17E)-8,10,14,16-tetramethyl-2,9,10,11,12,14-hexahydro-8H-3,5-ethenotripyrazolo[3,4-f:4′,3′-j:4″,3″- n][1,4]oxazacyclopentadecine] | 78.3 |  | 101 | 0.58 | 8.93 | 4.1 | 35.2 | 185 | 33.4 | 0.09 | 0.13
8 | C#Cc1nn(C)c2c1-c1ccc3[nH]nc(c3c1)/C=C/c1c(OCC)nn(CCO)c1CN(C)C[C@H](C)O2 [Example 292, 2-[(10S,17E)-16-ethoxy-6-ethynyl-8,10,12-trimethyl-2,8,10,11,12,13-hexahydro-14H-3,5-ethenotripyrazolo[3,4-f:3′,4′-j:4″,3″-n][1,4]oxazacyclopentadecin-14-yl]ethan-1-ol] |  |  |  | 1.36 |  |  |  | 1000 |  | 1.01 | 4.87
9 | CCOc1nn(CCO)c2c1/C=C/c1n[nH]c3ccc(cc13)-c1c(C#N)nn(C)c1O[C@@H](C)CN(CC)C2 [Example 290, (10S,17E)-16-ethoxy-12-ethyl-14-(2-hydroxyethyl)-8,10-dimethyl-2,10,11,12,13,14-hexahydro-8H-3,5-ethenotripyrazolo[3,4-f:3′,4′-j:4″,3″-n][1,4]oxazacyclopentadecine-6-carbonitrile] |  |  |  | 38.1 |  |  |  | 1000 |  | 69.4 | 102
10 | CCOc1c2c(nn1C)CN(C(C)=O)CCOc1c(cnn1C)-c1ccc3[nH]nc(c3c1)/C=C/2 [Example 294, 1-[(17E)-16-ethoxy-8,15-dimethyl-2,8,10,11,13,15-hexahydro-12H-3,5-ethenotripyrazolo[3,4-f:3′,4′-j:4″,3″- n][1,4]oxazacyclopentadecin-12-yl]ethan-1-one] |  |  |  | 1.37 |  |  |  | 1000 |  | 1.27 | 3.25
11 | CCNc1nn(CCO)c2c1/C=C/c1n[nH]c3ccc(cc13)-c1cnn(C)c1O[C@@H](C)CN(C)C2 [Example 295, 2-[(10S,17E)-16-(ethylamino)-8,10,12-trimethyl-2,8,10,11,12,13-hexahydro-14H-3,5-ethenotripyrazolo[3,4-f:3′,4′-j:4″,3″-n][1,4]oxazacyclopentadecin-14-yl]ethan-1-ol] |  |  |  | 1.12 |  |  |  | 13.8 |  | 0.64 | 0.78

Now those with a lower IC50 [4], led by results:

Row | IC50 [1] [nM] | IC50 [2] [nM] | IC50 [3] [nM] | IC50 [4] [nM] | IC50 [5] [nM] | IC50 [6] [nM] | IC50 [7] [nM] | IC50 [8] [nM] | IC50 [9] [nM] | IC50 [10] [nM] | IC50 [11] [nM] | SMILES
12 |  |  |  | 0.52 |  |  |  | 99.6 |  | 0.21 | 0.04 | Cc1nn(C)c2c1/C=C/c1n[nH]c3ccc(cc13)-c1cnn(C)c1O[C@@H](C)CN(C)[C@H]2C (single isomer, unassigned) [Example 145]
13 |  |  |  | 0.52 |  |  |  | 178 |  | 0.34 | 0.23 | Cc1nn(C)c2c1/C=C/c1n[nH]c3ccc(cc13)-c1cnn(C)c1COCCO2 [Ex. 6, (17E)-8,14,16-trimethyl-2,8,9,11,12,14-hexahydro-3,5-etheno[1,4]dioxacyclopentadecino[11,10-c:15,14-c′:6,7-c″ ]tripyrazole]
14 | 2120 |  | > 1000 | 0.48 |  | 202 | 687 | 45.2 | 898 | 0.2 | 0.08 | Cc1c2c(nn1C)OCCOCc1c(cnn1C)-c1ccc3[nH]nc(c3c1)/C=C/2 [Ex. 7, (17E)-8,15,16-trimethyl-2,8,9,11,12,15-hexahydro-3,5-etheno[1,4]dioxacyclopentadecino[11,10-c:15,14-c′:6,7-c″]tripyrazole]
15 |  |  |  | 0.31 |  |  |  | 664 |  | 0.14 | 0.4 | Cc1snc2c1/C=C/c1n[nH]c3ccc(cc13)-c1cnn(C)c1O[C@@H](C)CN(C)C2 [Example 158, (10S,17E)-8,10,12,16-tetramethyl-2,8,10,11,12,13-hexahydro-3,5-ethenodipyrazolo[3,4-j:4′,3′-n][1,2]thiazolo[3,4-f][1,4]oxazacyclopentadecine]
16 |  |  |  | 0.13 |  |  |  | 41.9 |  | 0.11 | 0.03 | Cc1noc2c1/C=C/c1n[nH]c3ccc(cc13)-c1cnn(C)c1O[C@@H](C)CN(C)C2 [Example 141, (10S,17E)-8,10,12,16-tetramethyl-2,8,10,11,12,13-hexahydro-3,5-etheno[1,2]oxazolo[5,4-f]dipyrazolo[3,4-j:4′,3′-n][1,4]oxazacyclopentadecine]
